Results on 3 molecules are retold here after patent US12410152B2, “Oxazole and thioazole-type cullin ring ubiquitin ligase compounds and uses thereof” (Proxygen GmbH, priority 2019, dated 2025).

Molecules are shown by their SMILES.

Assay [1] deals with T1, CCNK and DDB1 (Homo sapiens, UniProt O75909+Q16531).
T1 construct: endogenous in cells; host or cells: KBM7 cells (lysate in A24, intact cells in A25)
The experiment in a line: Drug affinity chromatography with IC021313.2^NH2-coupled beads in KBM7 lysates. In kind it is binding. To be noted: KBM7 whole cell lysates; competed by THZ531 100 μM. The source says: Regarding the first strategy, a variant of IC021313.2 associated with a free amine and named IC021313.2^NH2 allowed immobilizing IC021313.2^NH2 on sepharose beads, and purification of interacting proteins out of whole cell lysates (FIG. 20 a, b). […] Treating lysates with THZ531 and thus covalently blocking the active sites on CDK12/13 prevented DDB1 and CCNK enrichment via the IC021313.2^NH2 resin. This is in line with the fact that cellular co-treatment with THZ531 was able to abrogate drug-induced CCNK degradation (FIG. 19 d).
100 μL NHS-Activated Sepharose 4 Fast Flow (GE Life Sciences, 17090601) per condition were washed with 500 μL DMSO 3 times (3 min 800 rpm centrifugation at RT). Beads were resuspended in 50 μL DMSO and 2.5 μL IC021313.2^NH2 10 mM and 0.75 μL TEA (Sigma-Aldrich, T0886) were added. […]
200 million KBM7 cells were resuspended in 2 mL lysis buffer ([…] pH 7.5, 0.2% NP-40, 5% glycerol, 1.5 mM MgCl2, 100 mM NaCl, 1 mM EDTA) supplemented with protease inhibitors (Thermo Scientific, 78437) and benzonase (Merck, US170746-370746) and incubated on ice for 30 min. After centrifugation (full-speed, 4° C., 30 min) supernatant was transferred to a new tube and extracted protein measured with BCA (Fisher Scientific, 23225). […]

Assay [2] concerns the target T1, CCNK and DDB1. The experiment in a line: Photo-affinity probe (IC021313.2^PAP) pulldown in intact KBM7 cells. In kind it is binding. To be noted: UV crosslink, competed by THZ531. Here is the method: Regarding the second strategy, an alternative method for drug-target enrichment that is based on cellular treatment with IC021313.2^PAP, a functionalized analog of IC021313.2 containing a photoactive diazirine moiety and an alkyne handle was performed (FIG. 20 d). Following cellular treatment with IC021313.2^PAP, cells were UV crosslinked, lysed and the alkyne handle in IC021313.2^PAP was biotinylated for subsequent immobilization on streptavidin beads and identification of drug-interacting proteins via immunoblots. […] Also in this setup, covalently saturating the CDK12/13 binding site with THZ-531 competed with IC021313.2^PAP enrichment (FIG. 20 e, f). Collectively, both strategies indicate simultaneous engagement of the destabilized CCNK and the CRL4 adaptor protein DDB1 in a CDK12/13-dependent manner.
IC021313.2^NH2 was conjugated to a constant side chain consisting of a photosensitive diazirine group and an alkyne handle.
20 million KBM7^WT cells per condition were pre-treated with either DMSO or 100 μM THZ531 (competition condition) for 1h in the presence of 10 μM carfilzomib (Selleckchem, S2853) in serum-free IMDM medium (3 ml/20 million cells/10 cm dish). Then, cells were treated with 10 μM IC020772.1^PAP for 1h. […] Eluates were analyzed by WB. Quantification was performed with ImageJ.

Another assay concerns UBE2M mutant KBM7 cells. The experiment in a line: cells. Format: cell-based. To be noted: KBM7 UBE2M mutant vs WT. The method, then: KBM7 cells with the specified genetic backgrounds were grown in IMDM supplemented with 10% FBS and 1% penicillin/streptomycin (pen/strep). AsPC1, HCT116, NCI-H446 and 293T cells were grown in DMEM 10% FBS and 1% pen/strep. MV4; 11, Jurkat and Be (2) C cells were grown in RPMI 10% FBS 1% pen/strep. KBM7, AsPC1 and HCT116 cells expressing Cas9 were generated using the plasmid Lenti_Cas9_Blasti (Addgene #52962). The lentiviral plasmid lentiGuide-Puro (Addgene #52963) was used to express sgRNAs against the genes UBE2M (in KBM7-Cas9, AsPC1-Cas9 and HCT116-Cas9 cells), UBE2G1 (in KBM7-Cas9 cells) and […] (in KBM7-Cas9 cells). The lentiviral plasmid lentiGuide-Puro-IRES-mCherry (modified from Addgene #52963) was used to express sgRNAs against CUL4A (in KBM7-Cas9 cells). The lentiviral plasmid pLenti-PGK-Hygro-DEST-UBE2M was generated by Gateway cloning (empty destination vector Addgene #19066), and used to generate UBE2M^resc KBM7 cells. […]
Following this observation, it was rationalized that novel small molecule degraders can be identified in an unbiased manner, simply by searching for compounds that lose activity in the absence of UBE2M. 2000 small molecules, mostly of unknown function/target, were tested for their antiproliferative effects in human leukemia cells (KBM7). These cells were either transduced with a control sgRNA (KBM7WT), or with an sgRNA targeting UBE2M, leading to a hypomorph (deletion of six amino acids) with a functional impairment (UBE2Mmut).
Finally, a total of structurally similar analogs was tested to unravel structure-activity relationship of the identified molecules. To that end, their anti-cancer activity was assayed in WT cells, as well as KBM7 cells deficient in genes identified in the genome-wide CRISPR screens (UBE2M, CUL4B, UBE2G1). Moreover, the compounds were also tested in AsPC1 pancreatic cancer cells (WT or UBE2Mmut), MV4; 11 and Jurkat leukemia cells, Be (2) C neuroblastoma cells, and NCI-H446 lung cancer cells (Table 3 at the end of this document)
KBM7^WT, mutant KBM7 clones (UBE2M^mut, UBE2M^resc, UBE2G1^mut CUL4A^mut, CUL4B^mut), and 3-day doxycycline pretreated KBM7^iCas9_sgDDB1 cells were seeded at a cell density of 50,000 cells/mL in 96-well plates with DMSO or drug, in triplicates. Drugs used: IC020772.1/IC020772.1X, IC021313.2/IC021313.2X, T6938051/T6938051X or THZ531. Cells were treated for 3 days, after which cell viability was assessed according to manufacturer's protocol (CellTiter Glo, Promega G7570). Survival curves and EC50 values were calculated by best-fit analysis of the log 10 drug concentration to fold change of drug-treated cells over DMSO-treated cells. All survival assays included technical triplicates per sample, per experiment.

The target of another assay is T2, DCAF15 (Homo sapiens, UniProt Q66K64).
T2 construct: expressed in transfected cells; host or cells: 293T cells, DCAF15 knocked out, additionally transduced with LgBit
The experiment in a line: DCAF15 stabilization, live-cell HiBit/LgBit bioluminescence screen. In kind it is cell-based. To be noted: 10 μM, 293T cells expressing HiBit-DCAF15. The source says:
Subsequently, in this context, the E3 ligase substrate receptor (SR) stabilization approach was employed in order to identify novel chemical matter that can bind and chemically re-program the substrate receptor DCAF15. To be able to screen a collection of around 8000 small-molecules, a cellular system was developed that enabled monitoring of DCAF15 levels in live cells in multi-well format. To that end, DCAF15 was first knocked out in 293T cells via CRISPR/Cas9 technology. Then, DCAF15 was stably expressed as a HiBit® fusion protein in these cells. After further transducing these cells with LgBit, this allowed live-cell tracing of DCAF15 levels in 384 well format by measuring bioluminescence (FIG. 13).
In brief, cells were seeded at a concentration of 250′000 cells/ml in DMEM+10% FCS+25 mM Hepes. The luciferase substrate Endurazine was added at concentrations recommended by the manufacturer. Small-molecules were added at a concentration of 10 μM, and their effect on DCAF15 levels was assayed by continuous bioluminescent imaging (measurements were taken every 120 minutes). In total, 8000 compounds were tested.
The known DCAF15 molecular glue indisulam was used as a positive control. In brief, indisulam is known to act as a DCAF15-dependent molecular glue that binds DCAF15 and induced proximity between DCAF15 and RBM39, leading to the degradation of the latter. […]
For orientation: HiBiT is a short tag that completes a luciferase, so light tracks the accessible tagged protein.

A further assay has as its target T3, RBM39 (Homo sapiens, UniProt Q14498+Q66K64).
T3 construct: endogenous in cells; host or cells: KBM7 (WT or DCAF15 knockout) and 293T (DCAF15-HiBit or knockout)
In words: RBM39 levels by Western blot, WT vs DCAF15-deficient cells. Format: cell-based. To be noted: KBM7 12 or 16 h (dCeMM-1); 293T 10 h (dCeMM-2). The method, then:
The known DCAF15 molecular glue indisulam was used as a positive control. In brief, indisulam is known to act as a DCAF15-dependent molecular glue that binds DCAF15 and induced proximity between DCAF15 and RBM39, leading to the degradation of the latter. […] Given the structural similarity to indisulam, it was assayed if the two new test compounds would similarly lead to the degradation of RBM39 in a DCAF15-dependent manner. Towards that end, their effect on RBM39 levels in wildype cells as well as cells deficient for DCAF15 levels was tested. KBM7 (WT or knockout, FIG. 15) as well as 293T cells (DCAF15-HiBit overexpression vs knockout, see FIG. 16) were tested in various conditions of dCEMM.1 and/or dCEMM.2, comparing their effect to indisulam.
PBS-washed cell pellets were lysed in 50 mM Tris pH 7.9, 8M Urea and 1% CHAPS and incubated with shaking at 4° C. for at least 30 min. 20 μg of supernatants were run and transferred for detection. […]
On the technique in general: A western blot detects proteins with antibodies after separation by electrophoresis.

The subject of assay [3] is KBM7 cells (DCAF15 knockout). The experiment in a line: Cell viability, KBM7 DCAF15 knockout vs WT (72 hour treatment). Format: cell-based, human. The method, then: FIG. 18. (A) Cellular viability of KBM7 cells (WT or UBE2M mutant) after treatment with dCeMM.1. (72 hour treatment) (B) cellular viability of KBM7 cells (WT or DCAF15 knockout) after dose-ranging treatment with dCeMM.1 (72 hour treatment).
In another experiment, 2000 compounds were screened in a set up comparing their anti-proliferative effect in KBM7 cells modified in the UBE2M gene to wildtype KBM7 cells (FIG. 3). The PROTAC® ARV-771 was taken as positive control. Of note, among the identified hits was also dCeMM.1, which was similarly identified via the aforementioned DCAF15 restabilization assay.

T1 sequence (O75909 whole entry): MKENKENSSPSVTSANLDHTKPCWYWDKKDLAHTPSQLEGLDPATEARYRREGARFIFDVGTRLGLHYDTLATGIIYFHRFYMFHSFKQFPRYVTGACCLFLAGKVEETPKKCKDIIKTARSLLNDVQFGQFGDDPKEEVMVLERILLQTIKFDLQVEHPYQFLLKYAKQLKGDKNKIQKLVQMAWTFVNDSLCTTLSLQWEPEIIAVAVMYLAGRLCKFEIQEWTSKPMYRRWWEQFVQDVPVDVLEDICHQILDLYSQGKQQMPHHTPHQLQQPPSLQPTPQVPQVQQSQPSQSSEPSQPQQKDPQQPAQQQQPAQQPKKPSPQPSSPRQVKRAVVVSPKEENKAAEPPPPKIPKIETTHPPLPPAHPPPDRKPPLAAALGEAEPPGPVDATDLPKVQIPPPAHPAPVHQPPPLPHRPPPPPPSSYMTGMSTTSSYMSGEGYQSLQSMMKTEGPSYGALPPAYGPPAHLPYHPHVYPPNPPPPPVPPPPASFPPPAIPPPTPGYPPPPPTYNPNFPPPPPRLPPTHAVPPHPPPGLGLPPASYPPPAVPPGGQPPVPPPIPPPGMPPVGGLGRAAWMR
T1 sequence (Q16531 2-1140 limits assumed): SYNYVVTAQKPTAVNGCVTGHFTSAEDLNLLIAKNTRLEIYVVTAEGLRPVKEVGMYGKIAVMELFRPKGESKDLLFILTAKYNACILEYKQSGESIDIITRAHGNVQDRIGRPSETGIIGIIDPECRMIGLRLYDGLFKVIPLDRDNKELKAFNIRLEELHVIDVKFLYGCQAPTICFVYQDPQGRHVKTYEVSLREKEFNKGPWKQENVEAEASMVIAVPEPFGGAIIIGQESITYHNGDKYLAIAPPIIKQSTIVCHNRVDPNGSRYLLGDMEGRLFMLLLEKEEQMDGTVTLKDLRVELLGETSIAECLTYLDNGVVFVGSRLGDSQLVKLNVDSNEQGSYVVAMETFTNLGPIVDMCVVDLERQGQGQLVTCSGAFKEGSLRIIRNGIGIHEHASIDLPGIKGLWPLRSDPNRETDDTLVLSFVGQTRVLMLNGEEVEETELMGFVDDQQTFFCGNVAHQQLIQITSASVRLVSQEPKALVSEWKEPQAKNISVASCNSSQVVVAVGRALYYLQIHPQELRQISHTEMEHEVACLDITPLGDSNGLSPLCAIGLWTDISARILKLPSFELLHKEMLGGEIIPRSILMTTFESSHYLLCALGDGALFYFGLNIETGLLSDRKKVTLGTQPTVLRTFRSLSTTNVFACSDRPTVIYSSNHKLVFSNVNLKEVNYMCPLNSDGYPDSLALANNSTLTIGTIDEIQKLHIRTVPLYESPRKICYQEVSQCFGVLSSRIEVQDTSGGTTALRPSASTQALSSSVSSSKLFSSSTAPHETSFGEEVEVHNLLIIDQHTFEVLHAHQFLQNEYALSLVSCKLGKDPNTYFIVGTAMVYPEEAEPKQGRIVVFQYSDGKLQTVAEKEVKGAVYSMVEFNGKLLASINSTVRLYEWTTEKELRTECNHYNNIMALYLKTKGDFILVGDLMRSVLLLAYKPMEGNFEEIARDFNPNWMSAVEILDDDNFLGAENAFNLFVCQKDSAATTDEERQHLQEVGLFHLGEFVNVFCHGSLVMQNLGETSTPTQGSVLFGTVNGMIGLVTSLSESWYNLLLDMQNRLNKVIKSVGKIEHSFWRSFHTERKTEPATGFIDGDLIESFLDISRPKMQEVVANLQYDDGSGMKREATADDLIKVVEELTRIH
T1 sequence (Q9NYV4 whole entry partner): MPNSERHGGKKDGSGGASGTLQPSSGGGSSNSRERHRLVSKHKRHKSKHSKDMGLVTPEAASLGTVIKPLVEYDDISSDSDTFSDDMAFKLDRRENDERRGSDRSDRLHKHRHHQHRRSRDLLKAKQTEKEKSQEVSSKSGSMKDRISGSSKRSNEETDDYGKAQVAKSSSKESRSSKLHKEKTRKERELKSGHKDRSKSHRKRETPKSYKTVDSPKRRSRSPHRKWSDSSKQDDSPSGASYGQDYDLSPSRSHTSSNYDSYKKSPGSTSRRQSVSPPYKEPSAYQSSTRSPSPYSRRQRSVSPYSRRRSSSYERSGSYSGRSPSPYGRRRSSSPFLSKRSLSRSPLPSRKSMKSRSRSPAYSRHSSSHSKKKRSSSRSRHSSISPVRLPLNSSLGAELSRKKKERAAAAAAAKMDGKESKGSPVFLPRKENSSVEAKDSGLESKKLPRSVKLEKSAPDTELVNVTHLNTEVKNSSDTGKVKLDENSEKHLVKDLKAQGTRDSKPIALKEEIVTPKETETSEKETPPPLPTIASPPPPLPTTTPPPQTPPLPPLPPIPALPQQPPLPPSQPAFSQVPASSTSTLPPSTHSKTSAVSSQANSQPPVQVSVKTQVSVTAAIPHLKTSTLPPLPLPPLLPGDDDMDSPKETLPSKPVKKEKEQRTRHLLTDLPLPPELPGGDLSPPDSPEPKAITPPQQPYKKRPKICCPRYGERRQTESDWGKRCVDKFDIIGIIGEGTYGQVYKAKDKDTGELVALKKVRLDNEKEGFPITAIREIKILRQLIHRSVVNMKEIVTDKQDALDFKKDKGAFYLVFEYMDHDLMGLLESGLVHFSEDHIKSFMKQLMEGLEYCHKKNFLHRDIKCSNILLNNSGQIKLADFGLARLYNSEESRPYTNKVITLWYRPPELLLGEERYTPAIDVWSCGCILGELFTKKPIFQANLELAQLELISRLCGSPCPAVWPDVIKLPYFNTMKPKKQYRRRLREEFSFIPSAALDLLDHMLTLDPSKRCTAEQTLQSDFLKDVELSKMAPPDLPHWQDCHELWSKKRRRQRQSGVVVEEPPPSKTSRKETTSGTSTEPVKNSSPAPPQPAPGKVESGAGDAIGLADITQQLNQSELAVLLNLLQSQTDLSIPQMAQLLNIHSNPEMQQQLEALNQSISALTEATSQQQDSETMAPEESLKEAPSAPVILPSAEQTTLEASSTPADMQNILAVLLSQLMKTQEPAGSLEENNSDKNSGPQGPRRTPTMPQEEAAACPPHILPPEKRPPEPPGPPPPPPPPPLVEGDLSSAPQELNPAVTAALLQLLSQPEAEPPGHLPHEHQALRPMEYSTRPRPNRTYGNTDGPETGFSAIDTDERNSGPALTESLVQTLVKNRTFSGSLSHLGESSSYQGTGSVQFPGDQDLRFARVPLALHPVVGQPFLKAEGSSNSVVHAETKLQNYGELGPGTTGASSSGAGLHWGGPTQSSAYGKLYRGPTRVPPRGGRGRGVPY
T3 sequence (Q14498 2-530 limits assumed): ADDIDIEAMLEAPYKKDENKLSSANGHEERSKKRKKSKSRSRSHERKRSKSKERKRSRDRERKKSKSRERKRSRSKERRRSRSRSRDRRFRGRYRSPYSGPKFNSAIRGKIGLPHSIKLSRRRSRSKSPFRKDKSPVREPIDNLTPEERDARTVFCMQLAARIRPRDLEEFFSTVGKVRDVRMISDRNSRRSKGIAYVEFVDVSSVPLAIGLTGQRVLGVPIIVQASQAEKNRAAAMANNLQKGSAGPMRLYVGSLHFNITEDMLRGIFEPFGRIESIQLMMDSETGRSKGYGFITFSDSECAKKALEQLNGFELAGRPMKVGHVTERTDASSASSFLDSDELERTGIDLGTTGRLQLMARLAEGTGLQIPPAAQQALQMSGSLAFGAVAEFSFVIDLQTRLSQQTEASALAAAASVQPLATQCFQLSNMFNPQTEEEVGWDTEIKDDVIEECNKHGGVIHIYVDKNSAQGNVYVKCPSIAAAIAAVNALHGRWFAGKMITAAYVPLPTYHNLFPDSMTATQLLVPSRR
T3 sequence (Q66K64 whole entry): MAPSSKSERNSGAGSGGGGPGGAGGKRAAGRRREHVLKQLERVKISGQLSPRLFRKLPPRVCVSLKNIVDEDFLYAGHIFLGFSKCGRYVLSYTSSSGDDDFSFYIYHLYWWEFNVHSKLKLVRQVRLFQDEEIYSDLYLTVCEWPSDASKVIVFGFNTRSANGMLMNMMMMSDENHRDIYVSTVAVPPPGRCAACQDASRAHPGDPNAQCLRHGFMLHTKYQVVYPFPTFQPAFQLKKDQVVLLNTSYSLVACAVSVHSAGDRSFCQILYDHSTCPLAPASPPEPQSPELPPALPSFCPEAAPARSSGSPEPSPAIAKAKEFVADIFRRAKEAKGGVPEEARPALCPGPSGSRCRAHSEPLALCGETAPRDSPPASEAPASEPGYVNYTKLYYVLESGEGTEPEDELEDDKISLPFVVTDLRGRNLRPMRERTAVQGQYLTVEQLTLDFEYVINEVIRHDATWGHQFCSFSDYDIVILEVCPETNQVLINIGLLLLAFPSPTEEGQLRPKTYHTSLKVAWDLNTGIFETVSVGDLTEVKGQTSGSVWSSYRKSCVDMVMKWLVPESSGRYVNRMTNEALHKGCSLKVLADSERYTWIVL
T3 sequence (Q16531 2-1140 partner limits assumed): as the sequence (Q16531 2-1140 limits assumed) above
T2 sequence (Q66K64 whole entry): as the sequence (Q66K64 whole entry) above

As for `Nc1ccc2[nH]c(SCC(=O)Nc3ccc(Cl)cn3)nc2c1` [IC021313.2^NH2], the “interacting proteins in bead pulldown (immunoblot)” value at CCNK and DDB1 [1] was “both CCNK and DDB1 as interacting proteins”.

As for `C#CCCC1(CCC(=O)Nc2ccc3[nH]c(SCC(=O)Nc4ccc(Cl)cn4)nc3c2)N=N1` [IC021313.2^PAP], the “proteins enriched in photo-affinity pulldown (immunoblot)” value at CCNK and DDB1 [2] was “DDB1 and CCNK were enriched in the eluates”.

As for `Cc1ccc(S(=O)(=O)N/N=C/c2cc(Br)ccc2O)cc1` [dCeMM.1], in the assay with UBE2M mutant KBM7 cells, the “anti-proliferative effect upon mutation of UBE2M” value is on record as “loses anti-proliferative activity”. The “DCAF15 stabilization (relative luciferase signal over time)” value at DCAF15 is on record as “significant DCAF15 stabilization”. Further, the “RBM39 destabilization (Western blot), DCAF15-dependent” value at RBM39 is given as “significant destabilization of RBM39 levels”. For the same molecule, the “sensitivity upon inactivation of DCAF15” value in assay [3] is reported as “pronounced resistance”.
